Test results reported in ChEMBL document CHEMBL1201862, “PubChem BioAssay data set” (2004).
Calls of active or inactive are those of the source.

What was measured:
[1] = ZM109 Env clade C HIV-1 fusion inhibitors, dose response, HeLa effector, CEM target cells, luciferase, cherry-pick (AID 652058); type: functional, cell-based
[2] = off-target signal loss in HeLa-CEM21 co-culture – HeLa F-luc CTL cells, cherry-picked, counter-screen for HIV-1 Env fusion inhibitor project, dose response (AID 652040); type: functional, cell-based;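 note: potency for signal decrease marking cytotoxic or nonspecific inhibition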
[3] = inhibitors of HIV Env-driven cell fusion, dose response, cherry-pick (AID 652057); type: functional, cell-based
[4] = CEM21 lymphoblast cell cytotoxicity, dose response, cytotoxicity control for viral fusion inhibitor project, CellTiter-Glo luminescence, cherry-picked (AID 652042); type: functional, cell-based;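 note: potency for signal decrease meaning cytotoxicity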
[5] = inhibitors of clade B AD8 Env fusion, dose response, cell-based, cherry-pick (AID 652062); type: functional;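 note: luciferase signal from cell-cell fusion driven by HIV-1 clade B AD8 Env; potency is for inhibitors of fusion seen as a drop in luminescence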
[6] = Luminescence Cell-Based Dose Retest to Confirm Inhibitors of Cancer Stem Cells. [Related pubchem assays (depositor defined):AID2717, AID2721]; type: functional; conditions: Homo sapiens
Paired box protein Pax-8 = Paired box protein Pax-8 (Homo sapiens, UniProt Q06710); assay: inhibitors of PAX8-driven TPO luciferase reporter, dose response, RMG-I cells, cherry-pick (AID 687027); type: functional, cell-based;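 note: luciferase reporter driven by Pax8 target thyroperoxidase promoter measured by SteadyGlo luminescence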
[7] = non-specific cell cytotoxicity, dose response, cytotoxicity control for PAX8 inhibitor project, plate reader, dry powder samples (AID 743021); type: functional, cell-based
INS1 = assay: beta cell apoptosis inhibitors, cytokine rescue, dose response, luminescence, retest (AID 449756); type: functional, cell-based; conditions: Rattus norvegicus;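 note: cell death triggered by IL-1 beta plus TNF-alpha plus IFN-gamma mixture; protective hits raise ATP signal compared with cytokine alone wells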
[8] = HEK293 cell cytotoxicity, dose response, cytotoxicity control, plate reader, cherry-picked samples (AID 743446); type: functional, cell-based
[9] = biological target: T1, Sentrin-specific protease 8 (Homo sapiens, UniProt Q96LD8); type: functional;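 note: luminescence read-out of SENP8 inhibition, dose-response confirmation following an ultra-high-throughput screen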
T1 sequence (Q96LD8 whole entry): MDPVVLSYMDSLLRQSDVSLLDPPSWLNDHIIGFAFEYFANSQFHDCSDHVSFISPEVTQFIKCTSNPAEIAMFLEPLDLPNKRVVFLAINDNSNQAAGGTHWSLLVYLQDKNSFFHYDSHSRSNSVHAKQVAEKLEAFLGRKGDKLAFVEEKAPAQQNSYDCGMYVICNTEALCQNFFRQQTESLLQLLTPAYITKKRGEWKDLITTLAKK

[10] = LGR2 antagonists, dose response, cell-based, HEK293, CRE-luciferase reporter, cherry pick, set 2 (AID 743343); type: functional;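 note: transfected cells were stimulated with diluted bursicon conditioned medium after compound addition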
[11] = MC4R antagonists, dose response, counter-screen for LGR2 antagonist project, cell-based, plate reader, cherry pick (AID 743444); type: functional;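 note: transfected HEK 293 cells stimulated with alpha-MSH peptide; potency of inhibitors of the alpha-MSH evoked signal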
[12] = biological target: T2, Sentrin-specific protease 7 (Homo sapiens, UniProt Q9BQF6); type: functional;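 note: Luminescence-based dose-response confirmation of ultra-high-throughput screening hits, measuring inhibition of SENP7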
T2 sequence (Q9BQF6 whole entry): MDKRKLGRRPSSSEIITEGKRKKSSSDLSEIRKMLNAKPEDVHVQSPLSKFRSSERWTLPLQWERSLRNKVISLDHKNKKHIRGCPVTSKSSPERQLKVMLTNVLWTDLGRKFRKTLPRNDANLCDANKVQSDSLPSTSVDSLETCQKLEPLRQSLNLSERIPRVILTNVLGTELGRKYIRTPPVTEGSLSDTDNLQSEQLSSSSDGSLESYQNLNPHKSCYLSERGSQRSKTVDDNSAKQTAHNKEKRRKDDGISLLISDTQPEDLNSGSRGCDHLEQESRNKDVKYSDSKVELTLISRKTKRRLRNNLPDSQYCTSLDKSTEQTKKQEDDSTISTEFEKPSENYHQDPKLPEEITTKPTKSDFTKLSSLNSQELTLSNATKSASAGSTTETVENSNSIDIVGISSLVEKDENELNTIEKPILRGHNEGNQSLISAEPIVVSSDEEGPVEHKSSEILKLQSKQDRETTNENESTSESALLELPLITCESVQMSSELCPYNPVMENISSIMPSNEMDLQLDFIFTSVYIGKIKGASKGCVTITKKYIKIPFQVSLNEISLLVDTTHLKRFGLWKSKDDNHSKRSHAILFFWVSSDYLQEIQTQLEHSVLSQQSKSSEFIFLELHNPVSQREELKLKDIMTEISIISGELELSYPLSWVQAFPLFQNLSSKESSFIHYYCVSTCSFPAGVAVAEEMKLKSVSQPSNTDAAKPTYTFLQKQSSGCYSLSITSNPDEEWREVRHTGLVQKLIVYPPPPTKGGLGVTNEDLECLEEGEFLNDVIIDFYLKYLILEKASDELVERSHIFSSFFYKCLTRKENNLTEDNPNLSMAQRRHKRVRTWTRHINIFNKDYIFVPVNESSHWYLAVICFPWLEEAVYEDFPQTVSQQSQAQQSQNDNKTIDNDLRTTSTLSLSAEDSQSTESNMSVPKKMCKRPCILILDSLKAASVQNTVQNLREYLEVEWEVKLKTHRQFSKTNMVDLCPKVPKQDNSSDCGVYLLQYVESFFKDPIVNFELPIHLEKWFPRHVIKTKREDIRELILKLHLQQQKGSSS

[13] = HepG2 cell cytotoxicity, dose response, cytotoxicity control, plate reader, cherry-pick, antagonist series (AID 743416); type: functional, cell-based
Caspase-3 = biological target: T3, Caspase-3 (Homo sapiens, UniProt P42574); type: functional;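 note: Dose-response selectivity test against caspase-3 for candidate inhibitors of sentrin-specific proteases (SENPs)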
T3 sequence (P42574 whole entry): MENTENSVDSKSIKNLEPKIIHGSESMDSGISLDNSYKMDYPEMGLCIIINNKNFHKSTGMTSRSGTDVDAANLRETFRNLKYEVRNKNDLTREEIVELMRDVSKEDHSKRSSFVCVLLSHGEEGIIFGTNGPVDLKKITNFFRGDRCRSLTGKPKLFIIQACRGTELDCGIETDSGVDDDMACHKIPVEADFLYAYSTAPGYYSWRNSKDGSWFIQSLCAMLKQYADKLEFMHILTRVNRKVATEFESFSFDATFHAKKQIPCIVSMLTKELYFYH

[14] = biological target: T4, Sentrin-specific protease 6 (Homo sapiens, UniProt Q9GZR1); type: functional;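 note: Luminescence-based dose-response confirmatory assay of SENP6 inhibition, following up an ultra-high-throughput screen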
T4 sequence (Q9GZR1 whole entry): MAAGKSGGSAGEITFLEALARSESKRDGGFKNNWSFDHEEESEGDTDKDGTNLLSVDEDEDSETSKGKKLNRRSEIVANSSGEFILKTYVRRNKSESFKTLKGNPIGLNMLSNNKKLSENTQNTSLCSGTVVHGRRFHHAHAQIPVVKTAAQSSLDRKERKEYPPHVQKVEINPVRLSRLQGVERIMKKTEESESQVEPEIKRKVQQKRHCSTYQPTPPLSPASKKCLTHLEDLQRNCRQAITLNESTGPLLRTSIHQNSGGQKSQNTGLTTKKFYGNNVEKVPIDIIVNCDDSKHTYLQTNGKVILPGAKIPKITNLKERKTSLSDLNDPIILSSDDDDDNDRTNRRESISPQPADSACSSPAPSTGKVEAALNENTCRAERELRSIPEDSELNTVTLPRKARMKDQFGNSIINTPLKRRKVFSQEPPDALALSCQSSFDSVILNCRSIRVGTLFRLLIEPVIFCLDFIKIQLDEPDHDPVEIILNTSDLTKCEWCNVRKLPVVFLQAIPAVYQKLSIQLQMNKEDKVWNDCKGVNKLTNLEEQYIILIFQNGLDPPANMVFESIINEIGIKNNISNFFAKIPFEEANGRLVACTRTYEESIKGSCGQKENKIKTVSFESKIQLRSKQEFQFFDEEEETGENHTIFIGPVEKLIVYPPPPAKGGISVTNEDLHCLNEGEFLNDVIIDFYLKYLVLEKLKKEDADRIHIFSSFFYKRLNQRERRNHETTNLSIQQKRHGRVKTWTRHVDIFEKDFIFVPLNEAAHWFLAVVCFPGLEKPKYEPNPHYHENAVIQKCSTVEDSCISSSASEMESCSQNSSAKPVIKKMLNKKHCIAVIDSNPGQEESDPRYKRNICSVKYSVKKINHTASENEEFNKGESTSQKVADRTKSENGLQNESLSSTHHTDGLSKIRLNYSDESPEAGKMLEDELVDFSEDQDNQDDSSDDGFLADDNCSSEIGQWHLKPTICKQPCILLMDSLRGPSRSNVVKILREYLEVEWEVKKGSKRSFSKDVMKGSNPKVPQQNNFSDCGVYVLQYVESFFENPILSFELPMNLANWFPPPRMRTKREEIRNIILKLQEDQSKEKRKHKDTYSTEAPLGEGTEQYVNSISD

[15] = A549 cell cytotoxicity, dose response, cytotoxicity control, plate reader, cherry-pick, antagonist series (AID 743412); type: functional, cell-based
[16] = biological target: Luciferin 4-monooxygenase (Photinus pyralis, UniProt P08659); assay: Counter Screen for Luciferase-based Assay Positives. [Related pubchem assays: 620, 618, 411 ]
HT-1080 = assay: cytotoxicity in HT1080 fibrosarcoma cells, cell-based, fluorescence readout (AID 620); type: functional; conditions: Homo sapiens
[17] = biological target: T5, Calpain-2 catalytic subunit (Sus scrofa, UniProt P43367); assay: pig calpain II inhibitor potency, dose response, biochemical, fluorogenic peptide substrate (AID 1420); type: functional
T5 sequence (P43367 whole entry): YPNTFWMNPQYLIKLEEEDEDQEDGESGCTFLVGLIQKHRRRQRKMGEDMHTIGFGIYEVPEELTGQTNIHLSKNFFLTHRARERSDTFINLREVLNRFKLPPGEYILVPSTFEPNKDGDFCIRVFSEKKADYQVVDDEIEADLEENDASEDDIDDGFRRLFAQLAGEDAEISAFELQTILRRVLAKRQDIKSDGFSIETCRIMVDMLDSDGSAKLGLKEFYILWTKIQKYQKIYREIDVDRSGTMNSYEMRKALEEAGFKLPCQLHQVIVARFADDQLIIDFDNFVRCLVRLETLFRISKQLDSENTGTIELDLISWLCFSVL

cells = type: functional, cell-based
[18] = biological target: T6, Nuclear receptor subfamily 0 group B member 1 (Homo sapiens, UniProt P51843); type: functional, cell-based;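 note: HEK293T cells transfected with SF-1 and DAX-1 plus StAR promoter luciferase reporter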
T6 sequence (P51843 whole entry): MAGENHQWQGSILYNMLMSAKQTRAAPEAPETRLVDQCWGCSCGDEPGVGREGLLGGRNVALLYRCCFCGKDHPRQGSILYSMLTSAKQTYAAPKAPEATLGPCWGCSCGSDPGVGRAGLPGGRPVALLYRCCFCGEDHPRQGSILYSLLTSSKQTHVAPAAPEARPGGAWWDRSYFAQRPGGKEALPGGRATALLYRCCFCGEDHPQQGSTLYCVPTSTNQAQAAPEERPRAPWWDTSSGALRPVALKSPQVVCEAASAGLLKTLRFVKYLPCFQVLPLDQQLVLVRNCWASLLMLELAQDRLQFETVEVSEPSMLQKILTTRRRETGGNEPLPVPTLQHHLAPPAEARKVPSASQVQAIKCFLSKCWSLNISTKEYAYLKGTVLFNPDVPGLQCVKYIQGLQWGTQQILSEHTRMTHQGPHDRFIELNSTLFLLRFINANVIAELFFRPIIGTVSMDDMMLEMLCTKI

[19] = biological target: T7, DNA repair protein RAD52 homolog (Homo sapiens, UniProt P43351); type: functional, biochemical
T7 sequence (P43351 whole entry): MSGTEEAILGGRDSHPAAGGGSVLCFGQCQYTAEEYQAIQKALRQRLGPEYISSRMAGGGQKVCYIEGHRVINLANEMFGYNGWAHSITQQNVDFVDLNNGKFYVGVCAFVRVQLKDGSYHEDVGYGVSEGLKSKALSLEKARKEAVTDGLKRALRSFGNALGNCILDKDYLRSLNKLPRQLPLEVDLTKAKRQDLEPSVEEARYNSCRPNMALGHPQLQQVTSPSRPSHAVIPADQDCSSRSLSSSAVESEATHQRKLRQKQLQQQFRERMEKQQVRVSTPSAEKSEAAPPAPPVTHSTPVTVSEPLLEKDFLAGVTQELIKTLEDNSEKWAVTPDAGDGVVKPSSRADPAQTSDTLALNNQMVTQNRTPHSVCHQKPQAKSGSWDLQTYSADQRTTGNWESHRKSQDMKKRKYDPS

Chain of Paired box protein Pax-8 (Q06710 whole entry): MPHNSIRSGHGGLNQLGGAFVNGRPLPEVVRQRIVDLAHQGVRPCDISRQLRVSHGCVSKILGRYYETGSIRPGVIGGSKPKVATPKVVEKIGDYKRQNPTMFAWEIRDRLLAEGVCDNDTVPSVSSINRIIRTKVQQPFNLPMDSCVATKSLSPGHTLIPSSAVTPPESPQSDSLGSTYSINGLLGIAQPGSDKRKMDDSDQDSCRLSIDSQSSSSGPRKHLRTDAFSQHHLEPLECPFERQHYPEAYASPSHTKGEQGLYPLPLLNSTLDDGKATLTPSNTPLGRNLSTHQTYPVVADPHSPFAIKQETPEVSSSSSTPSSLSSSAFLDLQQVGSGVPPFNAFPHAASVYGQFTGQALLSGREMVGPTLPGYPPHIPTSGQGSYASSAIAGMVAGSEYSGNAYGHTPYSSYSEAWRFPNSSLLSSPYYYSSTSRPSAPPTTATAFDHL
Chain of Luciferin 4-monooxygenase (P08659 whole entry): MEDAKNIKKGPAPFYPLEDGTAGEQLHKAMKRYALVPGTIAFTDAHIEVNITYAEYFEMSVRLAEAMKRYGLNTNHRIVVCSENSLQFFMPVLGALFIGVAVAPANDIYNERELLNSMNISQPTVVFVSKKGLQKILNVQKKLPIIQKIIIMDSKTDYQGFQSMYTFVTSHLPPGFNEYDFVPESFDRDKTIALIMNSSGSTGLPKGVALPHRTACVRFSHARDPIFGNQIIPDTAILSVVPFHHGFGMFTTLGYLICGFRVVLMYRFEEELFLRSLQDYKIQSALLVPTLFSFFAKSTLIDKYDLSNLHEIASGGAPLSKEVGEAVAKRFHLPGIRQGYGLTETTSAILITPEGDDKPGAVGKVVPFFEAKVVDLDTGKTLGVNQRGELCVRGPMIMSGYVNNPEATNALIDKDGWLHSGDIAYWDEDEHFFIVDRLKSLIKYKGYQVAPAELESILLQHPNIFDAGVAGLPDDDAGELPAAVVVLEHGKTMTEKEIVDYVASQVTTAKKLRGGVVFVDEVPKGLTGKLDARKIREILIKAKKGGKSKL

C/C=C1\COC(C(=O)NCc2cccc(OC)c2OC)(C(F)(F)F)C=C1C=C1CCCCC1 (configuration not stated)
active: AC50 [1] 9 µM | AC50 [2] 50.1 µM | AC50 [3] 19.8 µM | AC50 [4] 22.3 µM | AC50 [5] 35.6 µM

O=C(C[C@@H]1C/C=C/CC[C@H](Cc2ccc(F)cc2)C(=O)OC[C@@H](Cc2ccccc2)NC1=O)N[C@H](CO)Cc1ccccc1
active: AC50 [6] 0.956 µM | AC50 (Paired box protein Pax-8) 15 µM | AC50 [7] 33.4 µM | AC50 (INS1) 5 µM

CCOc1cccc(C(=O)Nc2ccc3ccccc3c2)c1
inactive: AC50 [8] > 52 µM | AC50 [13] > 52 µM | AC50 [15] > 52 µM
active: IC50 [9] 4.95 µM | AC50 [10] 5.95 µM | AC50 [11] 5.43 µM | IC50 [12] 1.46 µM | IC50 (Caspase-3) 3.54 µM | IC50 [14] 2.37 µM

Cc1ccnc(Nc2nc3ccccc3o2)n1
active: AC50 [8] 30.1 µM | AC50 [10] 5.98 µM | EC50 [16] 3.04 µM | AC50 [11] 4.77 µM | AC50 [13] 46.8 µM | AC50 [15] 43.5 µM
> 50 µM (not active): EC50 (HT-1080) | IC50 [17]

Cn1c(=O)c2c(nc(NCCc3ccccc3)n2Cc2ccccc2)n(C)c1=O
active: AC50 [3] 30.8 µM | AC50 [4] 49.1 µM | AC50 [5] 12 µM

COc1ccc(-n2nnnc2C(c2cccc(OC)c2OC)N2CCC(n3c(O)nc4ccccc43)CC2)cc1 (configuration not stated)
active: AC50 [8] 17.6 µM | AC50 [10] 17.6 µM | AC50 [11] 21.5 µM | AC50 [15] 25.6 µM
inactive: AC50 [13] > 52 µM

COc1ccc(/C=C2\Sc3ccc(C(=O)NCCCN4CCCC4)cc3N(C)C2=O)cc1OC
active: AC50 [19] 3.69 µM
inactive: IC50 (cells) > 67.5 µM | IC50 [18] > 67.5 µM
